# Tests used:
# Format in all cases: in vivo
# [1] = test system: caerulein-induced increase of water and Evans blue content in the pancreas; experiment: Comparison of peptide A with the Berg et al. antagonist, given after onset of caerulein infusion in rats; conditions: rat; given 10 minutes after the outset of the caerulein infusion; Berg antagonist in a dose 10 times higher than peptide A
# Experimental: Additionally D-Arg^0 -HYP^3 -Thi^5.8 D-Phe^7 -BK disclosed by Berg et al. (see page 1) has been tested in comparision with the peptide A. Both antagonists were given in two groups of rats under identical conditions 10 minutes after the outset of the infusion of caerulein.
# [2] = test system: pancreatic enzymes in serum; experiment: Serum amylase and lipase activities in caerulein-induced pancreatitis in rats; conditions: rat, A s.c., no CRL i.v., n = 6
# Experimental: (§1) Method: Female Sprague-Dawley rats (260±30 g) were anaesthetized with pentobarbitone sodium (40 mg/kg, i.p.) and phenobarbitone sodium (160 mg/kg, i,p.). […] 10 min later, the animals were given a s.c. injection of a peptide of the formula I (100 nmol/kg) or of a corresponding volume (0.5 ml/kg) of a 154 mM sodium chloride solution. The systemic arterial blood pressure was monitored in a carotid artery using a Statham pressure transducer. A jugular vein was cannulated to allow the infusion of either caerulein (4 nmol/kg/h) or of physiological saline (0.034 ml/min). The infusion was started 30 min after the s.c. injection of a peptide of the formula I or saline, and lasted for 2 h. At the end of the experiment the animals were killed by decapitation; the blood was collected for the determination of serum amylase and lipase.
# Methods: Serum amylase was determined using a kinetic colour test with 2-chlor-4-nitrophenyl-D-maltoheptoside (Amylase test kit Roche, F.R.G.). Serum lipase was measured by the reduction of the turbidity due to cleavage of triolein to monoglyceride and oleic acid (Monotest Lipase, Boehringer Mannheim, F.R.G.). The detection limits for amylase and lipase were 11 U/I and 16 U/l, respectively. Control animals were treated with corresponding volumes of saline instead of a peptide of the formula I.
# [3] = test system: caerulein-induced pancreatic oedema; experiment: Pancreatic oedema (water and Evans blue content of pancreas) in caerulein-induced pancreatitis in rats; conditions: rat; for Pancreatic oedema: Evans blue / Pancreatic oedema: water: A s.c. 100 nmol/kg, mean ± SEM, n = 10
# Description: General methods: To induce experimental pancreatitis in animals, a number of procedures have been used including ligation of the pancreatic duct, injection of bile salts into the pancreatic duct, infusion of oleic acid, or infusion of the amphibian cholecystokinin analogue, caerulein. The latter procedure produces a hyperstimulation of the exocrine function of the pancreas and leads to morphological changes that share many features also seen in human acute pancreatitis (Willemer S., Bialek R., Kohler H. Adler G.; "Caerulein-induced acute pancreatitis in rats: changes in glycoprotein-composition of subcellular membrane systems in acinar cells;" Histochemistry 1990; 95; 87-96). Caerulein-induced pancreatitis in rats was used for the following experiments.
# as §1
# Method: Quantification of the pancreatic oedema was achieved by measuring the dry weight of pancreas and the accumulation of plasma proteins in pancreas. At the end of the infusions (see blood pressure experiments), the blood was collected for measuring enzymes in serum. The pancreas was excised and weighed. After drying the tissue, the difference between wet and dry weight, in relation to dry weight, was used as a measure for the water content of the tissue. 5 mg/kg of Evans blue, which quantitatively binds to serum albumin (Rawson R. A.: "The binding of T-1824 and structurally related diazo dyes by plasma proteins", Amer. J. Physiol. 1943, 138, 708-717) was injected i.v. immediately before the start of the i.v. infusion of caerulein or physiological saline. Thereafter the pancreatic tissue was used to measure Evans blue concentration photometrically (Gamse R., Holzer P., Lembeck F.: "Decrease of substance P in primary afferent neurones and impairment of neurogenic plasma extravasation by capsaicin", Br. J. Pharmacol. 1980, 68, 207-213; Saria A., Lundberg J. M.: "Evans blue fluorescence: quantitative and morphological evaluation of vascular permeability in animal tissues", J. Neurosci. Meth. 1983, 8, 41-49). Control animals were treated with corresponding volumes of saline instead of a peptide of the formula I or caerulein. Plasma extravasation was quantified as content of water and Evans blue in the pancreas.
# [4] = test system: bradykinin (injected, or split off from kininogen by kallikrein); experiment: Inhibition of the fall in blood pressure evoked by bradykinin and kallikrein in anaesthetized rabbits; conditions: anaesthetized rabbit, peptide 3 nmol/kg i.v.
# Experimental: Methods: Rabbits of either sex (3.5-5.0 kg) were anaesthetized with pentobarbitone sodium (35 mg/kg i.v.). Arterial blood pressure was monitored in a carotid artery using a Statham pressure transducer. I.v. injections of bradykinin (1 to 10 nmol/kg) or kallikrein (1 to 10 U/kg) were made into a jugular vein at intervals of 10 min. A peptide of the formula I (3 nmol/kg) was given i.v. and the injections of bradykinin or kallikrein were then repeated.
smiles,measurement,setting,value
"N=C(N)NCCC[C@@H](N)C(=O)N[C@@H](CCCNC(=N)N)C(=O)N1CCC[C@H]1C(=O)N1C[C@H](O)C[C@H]1C(=O)NCC(=O)N[C@@H](Cc1cccs1)C(=O)N[C@@H](CO)C(=O)N1Cc2ccccc2C[C@@H]1C(=O)N1[C@H](C(=O)N[C@@H](CCCNC(=N)N)C(=O)O)C[C@@H]2CCCC[C@@H]21 [peptide A, H-D-Arg-Arg-Pro-Hyp-Gly-Thi-Ser-D-Tic-Oic-Arg-OH]",increase of Evans blue content in the pancreas,[1],completely inhibited
same,increase of water content in the pancreas,[1],completely inhibited
same,Serum Amylase activity,[2]; mean ± SEM,3.19 ± 0.21 U/ml
same,Serum Lipase activity,[2]; nn = not detectable,nn
same,Pancreatic oedema: Evans blue,[3]; CRL i.v.,18.21 ± 4.24 μg/g dry wgt
same,Pancreatic oedema: water,[3]; CRL i.v.,3.11 ± 0.33 g/g dry wgt
same,Pancreatic oedema: Evans blue,[3]; no CRL i.v.,20.31 ± 5.80 μg/g dry wgt
same,Pancreatic oedema: water,[3]; no CRL i.v.,2.62 ± 0.23 g/g dry wgt
same,CRL induced pancreatic oedema,[3]; result in words,completely inhibited
same,fall in blood pressure evoked by bradykinin,[4]; bradykinin 1 to 10 nmol/kg i.v.,completely blocked
same,fall in blood pressure evoked by kallikrein,[4]; kallikrein 1 to 10 U/kg i.v.,completely blocked

# Source: patent publication US5670619A, “Bradykinin-antagonists for the treatment of acute pancreatitis” (Hoechst Aktiengesellschaft, priority 1991, dated 1997)
